Assay results reported in US20240173347A1, “COMPOSITIONS FOR RAISING NAD LEVELS AND METHODS AND USES THEREOF” (ACCURI, LLC, priority 2022, published 2024).

Test system: intracellular NAD
Experiment: Intracellular NAD levels in users before and after supplementation
Format: in vivo, human
Conditions: intravenous infusion, 5 sessions of 750 mg

NC(=O)c1ccc[n+]([C@@H]2O[C@H](COP(=O)([O-])OP(=O)(O)OC[C@H]3O[C@@H](n4cnc5c(N)ncnc54)[C@H](O)[C@@H]3O)[C@@H](O)[C@H]2O)c1 [NAD+, Nicotinamide adenine dinucleotide]
Effect on intracellular NAD levels: does not increase
